# Biological target: T1, FSH receptor (Homo sapiens, UniProt P23945)
# T1 sequence (P23945 18-695): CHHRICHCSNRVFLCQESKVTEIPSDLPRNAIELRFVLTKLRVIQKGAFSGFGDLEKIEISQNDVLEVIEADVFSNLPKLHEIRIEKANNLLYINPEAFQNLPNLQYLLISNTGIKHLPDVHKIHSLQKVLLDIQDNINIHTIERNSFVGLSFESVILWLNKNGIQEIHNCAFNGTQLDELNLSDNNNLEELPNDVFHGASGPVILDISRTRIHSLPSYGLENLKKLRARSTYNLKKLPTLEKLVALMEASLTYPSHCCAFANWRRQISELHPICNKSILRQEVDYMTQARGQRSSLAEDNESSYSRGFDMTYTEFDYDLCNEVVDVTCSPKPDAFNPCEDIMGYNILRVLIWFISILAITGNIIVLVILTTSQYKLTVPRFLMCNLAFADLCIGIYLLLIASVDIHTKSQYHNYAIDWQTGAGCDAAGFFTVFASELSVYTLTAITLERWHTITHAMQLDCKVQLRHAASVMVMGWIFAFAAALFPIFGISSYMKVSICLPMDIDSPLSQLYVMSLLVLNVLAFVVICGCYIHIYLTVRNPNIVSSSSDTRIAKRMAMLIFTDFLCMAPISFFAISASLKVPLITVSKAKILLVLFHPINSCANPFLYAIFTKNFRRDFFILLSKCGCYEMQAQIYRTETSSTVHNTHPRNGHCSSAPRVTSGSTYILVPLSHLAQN
# Experiment: FSH Receptor Radioligand Membrane Binding Standard Pharmacological Test Procedure
# Set-up: expressed in transfected cells
# Details: [125I]FSH binding to membranes of CHO cells stably transfected with the human FSH receptor
# Procedure: FSH Receptor Radioligand Membrane Binding Standard Pharmacological Test Procedure
# Membrane Source: Chinese hamster ovarian cells stably transfected with the human FSH receptor were cultured (Ultra CHO medium containing 1% fetal bovine serum and 200 μg/mL G418) in and harvested. Cells were collected by centrifugation and resulting cell pellets were frozen and stored at −70° C.
# Membrane Receptor Preparation: Frozen cell pellets were weighed and resuspended in binding buffer to a final concentration of 30 mg wet weight/mL. Cell suspension for each pellet was homogenized using a Tempest homogenizer (setting=1; 5 strokes; VirTis, Gardiner, N.Y.). Cell homogenates were pooled and 35 mL aliquots were transferred to 50-mL polypropylene copolymer centrifuge tubes (Nalgene cat. #3110-0500). Tubes were spun at 12,000 rpm (SS34 rotor) for 12 min at 4° C. Resulting supernatant fractions were discarded and pellets were stored at −70° C. until use. On the day of the procedure, 35 mL binding buffer was added to each tube (35 mL membrane suspension was sufficient for three 96-well plates). The membrane pellet was dispersed by trituration using a pipet. The resulting suspension wass homogenized using a Tempest homogenizer (3 strokes at setting=1).
# Receptor Binding Test procedure: Membrane homogenate (100 μl) was added to each well of a 96-well microtiter plate (Falcon # 3077). All reactions were tested in triplicate. Test compound solutions (50 μl) were added to the designated wells. Total bound counts were determined by adding 50 μl binding buffer containing 4% DMSO to the designated wells. […] Plates were pre-incubated for 15 min at room temperature on shaking platform (setting=3). After preincubation [^125I]FSH (50 μl) was added to each well and plates were incubated for 2 h at room temperature on shaking platform (setting=3). The reaction was terminated by transfer of the membrane preparation to glass fiber filters (Blue Mat #11740; 102×256 mm; Skatron Instruments, Sterling, Va.) that had been pretreated with 1% BSA in wash buffer for at least 30 min, but not longer than 1 h using a 96-well microtiter vacuum harvester (Skatron Instruments). The membrane preparation was washed with 5 cycles of ice-cold wash buffer (200 μl/well/cycle) followed by a pulse wash of 3 cycles (100 μl/well/cycle). The total wash volume per well was 1.3 mL. The filters were dried by a 10 sec aspiration. Disks corresponding to each well of the microtiter plate were punched out of the filter mat into 12×75 mm polypropylene tubes. The radioactivity present on each of the disks was measured using a gamma counter.
# An FSH dose response curve (0.001, 0.01, 0.1, 1, 10, and 100 nM) was generated for each binding procedure to monitor procedure to procedrue variability.
# FSH Receptor Radioligand Membrane Binding Procedure Buffers and Reagents
# Binding buffer is prepared in 11 volumes containing Trizma-HCl, MgCl2, CaCl2 and sodium azide, the pH was adjusted to 7.2 with NaOH, and stored at 4° C. until use. BSA was weighed out on the day of the procedure and added to the amount of buffer required for the procedure (usually 150 mL). The protease inhibitors were prepared as 1 mg/mL stocks (aprotinin, leupeptin, and phosphoramidon were prepared in binding buffer without BSA and protease inhibitors; pepstatin and PMSF were prepared in methanol), stored in 1 mL aliquots at −70° C., and added to the binding buffer on the day of the procedure.
# Wash buffer was prepared containing Trizma-HCl, MgCl2 and EDTA, the pH was adjusted to 7.2 with NaOH, and stored at 4° C.
# Filter Soak Buffer (pH 7.2)
# BSA was weighed out on the day of the procedure and added to 300 mL of wash buffer. The filter soak buffer was used for two procedures before being discarded.
# A portion of the stock solution was diluted in binding buffer to a concentration of 200 pM.
# FSH Solution for Determining Non-specific Binding: Purified human FSH was prepared as a 100 μM solution in binding buffer without protease inhibitors. […]
row,IC50,SMILES
1,2.4 µM,"O=C(Nc1ccc(CCc2ccc(NC(=O)c3ccc(CC4CCCO4)c(S(=O)(=O)N4CCOCC4)c3)cc2S(=O)(=O)O)c(S(=O)(=O)O)c1)c1ccc(CC2CCCO2)c(S(=O)(=O)N2CCOCC2)c1 (stereo not shown) [Example 32q, 2,2′-(1,2-Ethanediyl)bis[5-[[4-(tetrahydro-2-furanmethyl)-3-(4-morpholinylsulfonyl)benzoyl]amino]benzenesulfonic Acid]]"
2,4.3 µM,"NC(=O)CS(=O)(=O)c1cccc(C(=O)Nc2ccc(/C=C/c3ccc(NC(=O)c4cccc(S(=O)(=O)CC(N)=O)c4)cc3S(=O)(=O)O)c(S(=O)(=O)O)c2)c1 [Example 37d, 5-[[3-[(2-Amino-2-oxoethyl)sulfonyl]benzoyl]amino]-2-[(E)-2-[4-[[3-[(2-amino-2-oxoethyl)sulfonyl]benzoyl]amino]-2-sulfophenyl]ethenyl]-benzenesulfonic Acid]"
3,10 µM,"O=C(Nc1ccc(/C=C/c2ccc(NC(=O)c3ccc(OCc4ccco4)c(S(=O)(=O)N4CCOCC4)c3)cc2S(=O)(=O)O)c(S(=O)(=O)O)c1)c1ccc(OCc2ccco2)c(S(=O)(=O)N2CCOCC2)c1 [Example 30u, 2,2′-[(E)-1,2-Ethenediyl]bis[5-[[4-(2-furanylmethoxy)-3-(4-morpholinylsulfony)benzoyl]amino]benzenesulfonic Acid]]"
4,7 µM,"O=C(Nc1ccc(/C=C/c2ccc(NC(=O)c3ccc(N4CCOCC4)c(S(=O)(=O)N4CCOCC4)c3)cc2S(=O)(=O)O)c(S(=O)(=O)O)c1)c1ccc(N2CCOCC2)c(S(=O)(=O)N2CCOCC2)c1 [Example 32k, 2,2′-[(E)-1,2-Ethenediyl]bis[5-[[4-(4-morpholinyl)-3-(4-morholinylsulfonyl)benzoyl]amino]benzenesulfonic Acid]]"
5,12.5 µM,"COC(=O)CS(=O)(=O)c1cccc(C(=O)Nc2ccc(C=Cc3ccc(NC(=O)c4cccc(S(=O)(=O)CC(=O)OC)c4)cc3S(=O)(=O)O)c(S(=O)(=O)O)c2)c1 [Example 32d, [3-(4-{2-[4-(3-Methoxycarbonylmethanesulfonyl-benzoylamino)-2-sulfo-phenyl]-vinyl}-3-sulfo-phenylcarbomoyl)-benzenesulfonyl]-acetic Acid, Methyl Ester]"
6,5.3 µM,"CS(=O)(=O)Cc1ccc(C(=O)Nc2ccc(/C=C/c3ccc(NC(=O)c4ccc(CS(C)(=O)=O)cc4)cc3S(=O)(=O)O)c(S(=O)(=O)O)c2)cc1 [Example 32g, 2,2′-[(E)-1,2-Ethenediyl]bis[5-[[4-[(methylsulfonyl)methyl]benzoyl]amino]benzenesulfonic Acid]]"
7,6.9 µM,"COC(=O)CS(=O)(=O)c1ccc(C(=O)Nc2ccc(C=Cc3ccc(NC(=O)c4ccc(S(=O)(=O)CC(=O)OC)cc4)cc3S(=O)(=O)O)c(S(=O)(=O)O)c2)cc1 [Example 32c, [4-(4-{2-[4-(4-Methoxycarbonylmethanesulfonyl-benzoylamino)-2-sulfo-phenyl]-vinyl}-3-sulfo-phenylcarbomoyl)-benzenesulfonyl]-acetic Acid, Methyl Ester]"
8,4.9 µM,"COCCN(CCOC)c1ccc(C(=O)Nc2ccc(/C=C/c3ccc(NC(=O)c4ccc(N(CCOC)CCOC)c(S(=O)(=O)N5CCOCC5)c4)cc3S(=O)(=O)O)c(S(=O)(=O)O)c2)cc1S(=O)(=O)N1CCOCC1 [Example 32m, 2,2′-[(E)-1,2-Ethenediyl]bis[5-[[4-[bis(2-methoxyethyl)amino]-3-(4-morpholinylsulfonyl)benzoyl]amino]benzenesulfonic Acid]]"
9,16 µM,"O=C(O)CS(=O)(=O)c1ccc(C(=O)Nc2ccc(C=Cc3ccc(NC(=O)c4ccc(S(=O)(=O)CC(=O)O)cc4)cc3S(=O)(=O)O)c(S(=O)(=O)O)c2)cc1 [Example 36a, [4-(4-{2-[4-(4-Carboxymethanesulfonyl-benzoylamino)-2-sulfo-phenyl]-vinyl}-3-sulfo-phenylcarbamoyl)-benzenesulfonyl]-acetic Acid]"
10,34 µM,"COc1ccc(C(=O)Nc2ccc(CSCc3ccc(NC(=O)c4ccc(OC)c(S(=O)(=O)N5CCOCC5)c4)cc3S(=O)(=O)O)c(S(=O)(=O)O)c2)cc1S(=O)(=O)N1CCOCC1 [Example 50a, 2,2′-[Thiobis(methylene)]bis[5-[[4-methoxy-3-(4-morpholinylsulfonyl)benzoyl]amino]benzenesulfonic Acid]]"
11,4.3 µM,CS(=O)(=O)c1ccc(C(=O)Nc2ccc(CCc3ccc(NC(=O)c4ccc(S(C)(=O)=O)cc4)cc3S(=O)(=O)O)c(S(=O)(=O)O)c2)cc1 [Example 43e]
12,5.2 µM,"CS(=O)(=O)Cc1ccc(C(=O)Nc2ccc(/C=C/c3ccc(NC(=O)c4ccc(S(C)(=O)=O)cc4)cc3S(=O)(=O)O)c(S(=O)(=O)O)c2)cc1 [Example 40b, 5-[[4-(Methylsulfonyl)benzoyl]amino]-2-[(E)-2-[4-[[4-[(methylsulfonyl)methyl]benzoyl]amino]-2-sulfophenyl]ethenyl]benzenesulfonic Acid]"
13,15 µM,"COC(=O)CSc1ccc(C(=O)Nc2ccc(/C=C/c3ccc(NC(=O)c4ccc(SCC(=O)OC)c(S(=O)(=O)N5CCOCC5)c4)cc3S(=O)(=O)O)c(S(=O)(=O)O)c2)cc1S(=O)(=O)N1CCOCC1 [Example 32p, [4-[4-(2-{4-[4-Methoxycarbonylmethanesulfanyl-3-(morpholine-4-sulfonyl)-benzoylamino]-2-sulfo-phenyl}-(E)-vinyl)-3-sulfo-phenylcarbamoyl]-2-(morpholine-4-sulfonyl)-phenylsulfanyl]-acetic Acid, Methyl Ester]"
14,20 µM,"COc1ccc(C(=O)Nc2ccc(-c3ccc(NC(=O)c4ccc(OC)c(S(=O)(=O)N5CCOCC5)c4)cc3S(=O)(=O)O)c(S(=O)(=O)O)c2)cc1S(=O)(=O)N1CCOCC1 [Example 33g, 4,4′-Bis[4-methoxy-3-(morpholine-4-sulfonyl)benzoylamino]biphenyl-2,2′-(bis)sulfonic Acid]"
15,4.1 µM,COCCSc1ccc(C(=O)Nc2ccc(/C=C/c3ccc(NC(=O)c4ccc(SCCOC)c(S(=O)(=O)N5CCOCC5)c4)cc3S(=O)(=O)O)c(S(=O)(=O)O)c2)cc1S(=O)(=O)N1CCOCC1 [Example 32l]
16,6.7 µM,"O=C(CS(=O)(=O)c1cccc(C(=O)Nc2ccc(/C=C/c3ccc(NC(=O)c4cccc(S(=O)(=O)CC(=O)NCCO)c4)cc3S(=O)(=O)O)c(S(=O)(=O)O)c2)c1)NCCO [Example 37c, 5-[[3-[[2-[(2-Hydroxyethyl)amino]-2-oxoethyl]sulfonyl]benzoyl]amino]-2-[(E)-2-[4-[[3-[[2-[(2-hydroxyethyl)amino]-2-oxoethyl]sulfonyl]benzoyl]amino]-2-sulfo-phenyl]ethenyl]benzenesulfonic Acid]"

# From US6355633B1, “Aryl sulfonic acids and derivatives as FSH antagonists” (American Home Products Corporation, priority 1999, dated 2002)
